Experimental data published in patent publication US20240024324A1, “KINASE INHIBITOR COMBINATIONS FOR CANCER TREATMENT” (Merck Patent GmbH, priority 2020, published 2024).

Legend:
GSC11 [1] = experiment: GSC lines: sensitivity in vitro (IC50); assay type: cell-based; settings: GSC11 line in vitro
Description: (§1) FIG. 1: In vitro analyses in GSC lines. (A) Western blot analysis of protein expression; (B) IC50 of M2698; (C) IC50 of pimasertib; and (D) apoptotic GSC11, GSC7-2, and GSC17 cells after treatment with M2698, pimasertib, or M2698+pimasertib combination. Single agents were tested at their IC50; half the IC50 of each compound was used for the combination.
(§2) All GSC lines expressed Akt. Relatively high pAkt expression in GSC17, GSC7-2, GSC231, GSC11, GSC20, GSC6-27, and GSC8-11 lines compared with GSC272 and GSC267 (FIG. 1A).

GSC17 [2] = experiment: GSC lines: sensitivity in vitro (IC50); assay type: cell-based; settings: GSC17 line in vitro
Description: as §1, §2

GSC20 [3] = experiment: GSC lines: sensitivity in vitro (IC50); assay type: cell-based; settings: GSC20 line
Description: as §1, §2

GSC231 [4] = experiment: GSC lines: sensitivity in vitro (IC50); assay type: cell-based; settings: GSC231 line in vitro
Description: as §1, §2

GSC6-27 [5] = experiment: GSC lines: sensitivity in vitro (IC50); assay type: cell-based; settings: GSC6-27 line in vitro
Description: as §1, §2

GSC7-2 [6] = experiment: GSC lines: sensitivity in vitro (IC50); assay type: cell-based; settings: GSC7-2 line in vitro
Description: as §1, §2

GSC8-11 = experiment: GSC lines: sensitivity in vitro (IC50); assay type: cell-based; settings: GSC8-11 line in vitro
Description: as §1, §2

GSC11 [7] = experiment: Induction of apoptosis in GSC lines in vitro; assay type: cell-based
Description: (§3) FIG. 1: In vitro analyses in GSC lines. (A) Western blot analysis of protein expression; (B) IC50 of M2698; (C) IC50 of pimasertib; and (D) apoptotic GSC11, GSC7-2, and GSC17 cells after treatment with M2698, pimasertib, or M2698+pimasertib combination. […]
(§4) Induction of apoptosis by M2698, pimasertib, and the combination was measured in three of five GSC lines that were sensitive to M2698 in vitro.

GSC17 [8] = experiment: Induction of apoptosis in GSC lines in vitro; assay type: cell-based
Description: as §3, §4

GSC7-2 [9] = experiment: Induction of apoptosis in GSC lines in vitro; assay type: cell-based
Description: as §3, §4

GSC11 [10] = experiment: Orthotopic GSC xenograft model; assay type: in vivo, mice
Description: (§5) The in vivo effects of M2698 and pimasertib, alone and in combination, were assessed in the GSC models after orthotopic implantation into mice. Treatment duration and time of euthanasia post-implantation was 5-10 weeks. Endpoints were expression of PD markers pS6 and pERK, proliferation marker Ki67, apoptosis as measured by TUNEL, tumor volume and survival.

GSC17 [11] = experiment: Orthotopic GSC xenograft model; assay type: in vivo, mice
Description: as §5

GSC20 [12] = experiment: Orthotopic GSC xenograft model; assay type: in vivo, mice
Description: as §5

GSC231 [13] = experiment: Orthotopic GSC xenograft model; assay type: in vivo, mice
Description: as §5

GSC272 = experiment: Orthotopic GSC xenograft model; assay type: in vivo, mice
Description: as §5

GSC6-27 [14] = experiment: Orthotopic GSC xenograft model; assay type: in vivo, mice
Description: as §5

GSC7-2 [15] = experiment: Orthotopic GSC xenograft model; assay type: in vivo, mice
Description: as §5

[16] = system: Non-Small Lung Cancer (NSCLC) Brain Metastases PDX; experiment: PDX models of NSCLC brain metastases; assay type: in vivo
[17] = system: Her2+/HR− Breast Cancer PDX; experiment: PDX models of Her2+/HR- breast cancer; assay type: in vivo
[18] = system: human cholangiocarcinoma cancer PDX; experiment: PDX models of cholangiocarcinoma; assay type: in vivo, mice; settings: 20 mg/kg each agent QD PO
From the text: The objective of this experiment was to evaluate the antitumor activity of M2698 alone and in combination with Pimasertib in a panel of 13 Patient-Derived Xenograft models representing human cholangiocarcinoma cancer derived from Chinese patients in immune-deficient mice.
Vehicle: 0.5% Methocel/0.25% Tween20 in Milli-Q Water. Tumors from three untreated mice were collected as satellite samples when reached a tumor volume between 300-500 mm3.

Colorectal Cancer PDX = experiment: 75 PDX models of colorectal cancer; assay type: in vivo; settings: CRC PDX; M2698 25 mg/kg po qd, Pimasertib 20 mg/kg po qd, Cetuximab 20 mg/kg ip q2w
From the text: Of the 75 models, 25 were wild type, 25 KRas mutant, and 25 BRaf mutant.

SCCHN PDX = experiment: 38 PDX models of SCCHN, 1+1 screen; assay type: in vivo, mouse; settings: 38 models, M2698 25 mg/kg PO QDx28, Cetuximab 30 mg/kg IP 2wklyx4
Description: 46 SCCHN PDX models were run in a 1+1 scheme (one mouse per treatment group). […] With the adjustment to the cancellation, 38 models were completed. […] After implantation, treatments began when average tumor volume reached ˜200 mm^3 for each model. Tumor volumes were measured for each model until the control tumor reached ˜1200 mm^3 at which time all animals for that model were euthanized.

p70S6K = p70S6K (Homo sapiens, UniProt P23443); settings: variety of cell-based assays; cited from earlier work
Akt = settings: variety of cell-based assays; cited from earlier work
cancer cell lines = settings: broad panel of cancer cell lines; cited from earlier work
[19] = in vivo; cited from earlier work
human GBM = settings: orthotopically implanted models of human GBM; cited from earlier work

Sequence of p70S6K (P23443 whole entry): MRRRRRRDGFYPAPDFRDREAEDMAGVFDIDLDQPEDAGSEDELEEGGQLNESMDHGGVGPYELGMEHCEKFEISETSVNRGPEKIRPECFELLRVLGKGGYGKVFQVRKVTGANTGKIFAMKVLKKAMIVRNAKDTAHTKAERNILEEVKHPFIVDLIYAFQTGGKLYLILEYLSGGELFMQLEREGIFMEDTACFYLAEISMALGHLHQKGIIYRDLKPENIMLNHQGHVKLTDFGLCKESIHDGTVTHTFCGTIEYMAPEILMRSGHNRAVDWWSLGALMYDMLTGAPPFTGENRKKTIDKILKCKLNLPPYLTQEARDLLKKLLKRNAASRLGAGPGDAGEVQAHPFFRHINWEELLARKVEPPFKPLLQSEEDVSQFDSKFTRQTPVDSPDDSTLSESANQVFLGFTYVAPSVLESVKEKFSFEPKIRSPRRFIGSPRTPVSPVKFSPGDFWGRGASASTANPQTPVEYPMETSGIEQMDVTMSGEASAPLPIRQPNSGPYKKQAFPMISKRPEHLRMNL

## NC(=O)c1cccc2c(N[C@H](CN3CCC3)c3ccc(Cl)c(C(F)(F)F)c3)ncnc12 [M2698, 4-[(S)-2-Azetidin-1-yl-1-(4-chloro-3-trifluoromethyl-phenyl)-ethylamino]-quinazoline-8-carboxylic acid amide]
GSC11 [1]
  IC50: < 2 µM
GSC17 [2]
  IC50: < 2 µM
GSC20 [3]
  sensitivity in vitro: insensitivity
GSC231 [4]
  IC50: < 2 µM
GSC6-27 [5]
  IC50: < 2 µM
GSC7-2 [6]
  IC50: < 2 µM
GSC8-11
  IC50: < 2 µM
GSC11 [7]; GSC11, monotherapy at 2×IC50
  apoptotic percentage: 62%
GSC11 [7]; GSC11, monotherapy at the IC50
  apoptotic percentage: 56%
GSC17 [8]; GSC17, monotherapy at 2×IC50
  apoptotic percentage: 12%
GSC17 [8]; GSC17, monotherapy at the IC50
  apoptotic percentage: 11%
GSC7-2 [9]; GSC7-2, monotherapy at 2×IC50
  apoptotic percentage: 17%
GSC7-2 [9]; GSC7-2, monotherapy at the IC50
  apoptotic percentage: 13%
GSC11 [10]; GSC11, PD marker
  pERK expression in orthotopic tumor: reduced pERK
  pS6 expression in orthotopic tumor: significantly reduced pS6
GSC11 [10]; GSC11 orthotopic, vs vehicle
  tumor volume / tumor growth: had a trend to do so
GSC17 [11]; GSC17, PD marker
  pERK expression in orthotopic tumor: reduced pERK
  pS6 expression in orthotopic tumor: significantly reduced pS6
GSC17 [11]; GSC17 orthotopic, vs vehicle
  tumor volume / tumor growth: significantly inhibited tumor growth
GSC17 [11]; GSC17 tumor sections, compared to vehicle
  proliferation (Ki67 by immunohistochemistry): significantly reduced proliferation
GSC20 [12]; GSC20, PD marker
  pS6 expression in orthotopic tumor: lack of significant response
GSC20 [12]; GSC20 orthotopic, vs vehicle
  tumor volume / tumor growth: had not responded
GSC231 [13]; GSC231, PD marker
  pERK expression in orthotopic tumor: reduced pERK
  pS6 expression in orthotopic tumor: significantly reduced pS6
GSC231 [13]; GSC231 orthotopic, vs vehicle
  median survival: prolonged survival
  tumor volume / tumor growth: significantly inhibited tumor growth
GSC272; GSC272, PD marker
  pERK expression in orthotopic tumor: reduced pERK
  pS6 expression in orthotopic tumor: significantly reduced pS6
GSC272; GSC272 orthotopic, vs vehicle
  median survival: prolonged survival
  tumor volume / tumor growth: significantly inhibited tumor growth
GSC6-27 [14]; GSC6-27, PD marker
  pERK expression in orthotopic tumor: reduced pERK
  pS6 expression in orthotopic tumor: significantly reduced pS6
GSC6-27 [14]; GSC6-27 orthotopic, vs vehicle
  tumor volume / tumor growth: significantly inhibited tumor growth
GSC7-2 [15]; GSC7-2, PD marker
  pERK expression in orthotopic tumor: reduced pERK
  pS6 expression in orthotopic tumor: significantly reduced pS6
GSC7-2 [15]; GSC7-2 orthotopic, vs vehicle
  tumor volume / tumor growth: significantly inhibited tumor growth
GSC7-2 [15]; GSC7-2 tumor sections, compared to vehicle
  proliferation (Ki67 by immunohistochemistry): significantly reduced proliferation
GSC7-2 [15]; GSC7-2 xenografts, after 10 weeks
  number of apoptotic cells/field: 52.17±25.20 cells/field
GSC7-2 [15]; GSC7-2 xenografts, at 7.5 weeks
  apoptosis in xenografts vs control: Neither M2698, pimasertib, nor combination treatment significantly affected apoptosis
[16]
  tumor control rate (TCR): 5%
[17]
  tumor volume over the duration of the experiment: stasis of the tumor volume
[18]
  tumor stasis, number of tumor samples: 2/12
  tumor stasis, share of tumor samples: 17%
Colorectal Cancer PDX
  tumor control rate (TCR): 15%
  tumor control rate (TCR), models controlled/models: 11/74
SCCHN PDX
  Models with an Overall Response (“RECIST”): 7/38
  Partial response (number of models): 0
  Tumor Progression (number of models): 31
  Tumor Stasis (number of models): 7
  tumor control rate (TCR): 18%
p70S6K
  inhibition of p70S6K: highly potent
Akt
  inhibition of Akt: highly potent
Cancer cell lines
  anti-tumor activity: potent anti-tumor activity
[19]
  blood-brain barrier penetration: crosses the blood-brain barrier
Human GBM
  survival: prolongs survival
  tumor growth: reduces tumor growth
